These are literature values, as cited in patent US20060024806A1, “Mycolactone locus: an assembly line for producing novel polyketides, therapeutic and prophylactic uses” (priority 2003, published 2006).

Molecules are shown by their SMILES.

This series has as its system guinea pig model of the disease. The note with it: purified mycolactone injected subcutaneously.

`CC(=C\C=C\C(C)=C\[C@H](O)[C@@H](O)C[C@H](C)O)/C=C(C)/C=C/C(=O)O[C@H]1CCCC(=O)O[C@@H]([C@@H](C)C/C(C)=C/[C@@H](C)[C@H](O)C[C@@H](C)O)C/C=C(\C)C[C@@H]1C` [mycolactone]: the pathology after injection entry was “reproduces the natural pathology”.
